# Laboratory results from EP0259014A2, “5-Deoxy-5-fluorokanamycin B derivatives and processes for the production thereof” (ZAIDAN HOJIN BISEIBUTSU KAGAKU KENKYU KAI, priority 1986, dated 1988).
# Like-named read-outs stand apart in the source and are kept apart here.
# What was measured:
# Type in all cases: cell-based
# [1] = system: Staphylococcus aureus 209P; experiment: MIC, serial dilution on Mueller Hinton agar
# Bacillus subtilis PCI219 = experiment: MIC, serial dilution on Mueller Hinton agar
# [2] = system: Pseudomonas aeruginosa GN 315; experiment: MIC, serial dilution on Mueller Hinton agar; details: GN315; Pseudomonas aeruginosa GN 315, resistance mechanism AAC(6'); Mueller Hinton agar, 37°C, 18 hours; read-out: MIC.
# [3] = system: Escherichia coli JR66/W677; experiment: microbe, parasite or virus in culture; details: JR66/W677, 18 h
# [4] = system: Klebsiella pneumoniae 22#3038; experiment: MIC, serial dilution on Mueller Hinton agar; details: Klebsiella pneumoniae 22#3038, resistance mechanism APH(3')-II, ANT(2"), 37°C, 18 hours
# Description: The antibacterial spectra so determined of the new compounds No. 1 to No. 13 (each in the form of the free base) of this invention are as shown in Table 1 below.
# Escherichia coli K-12 R5 = experiment: MIC, serial dilution on Mueller Hinton agar; details: K12R5, 18 h
# [5] = system: Escherichia coli K-12 LA 290 R55; experiment: MIC, serial dilution on Mueller Hinton agar; details: for MIC: Escherichia coli, K12LA290R55, 18 h
# [6] = system: Pseudomonas aeruginosa A3; experiment: MIC, serial dilution on Mueller Hinton agar
# [7] = system: Corynebacterium bovis 1810; experiment: MIC, serial dilution on Mueller Hinton agar
# [8] = system: Staphylococcus aureus Ap01; experiment: MIC, serial dilution on Mueller Hinton agar
# [9] = system: Escherichia coli K-12 ML 1629; experiment: MIC, serial dilution on Mueller Hinton agar; details: K12ML1629, Escherichia coli K-12 ML 1629, resistance mechanism APH(3')-I, 37°C, 18 hours
# Serratia marcescens = experiment: MIC, serial dilution on Mueller Hinton agar
# Providencia sp. Pv 16 = experiment: MIC, serial dilution on Mueller Hinton agar
# Escherichia coli JR225 = experiment: microbe, parasite or virus in culture; details: for MIC: Escherichia coli, JR225, 18 h
# Escherichia coli K-12 = experiment: MIC, serial dilution on Mueller Hinton agar; details: K12; Escherichia coli K-12; Mueller Hinton agar, 37°C, 18 hours; read-out: MIC.
# Mycobacterium 607 = experiment: MIC, serial dilution on Mueller Hinton agar
# Proteus rettgeri GN 311 = experiment: MIC, serial dilution on Mueller Hinton agar; details: Providencia rettgeri, GN311; Proteus rettgeri GN 311; Mueller Hinton agar, 37°C, 18 hours; read-out: MIC.
# [10] = Mueller Hinton agar, 37°C, 18 hours, read-out: MIC.
# [11] = Staphylococcus aureus 209P, Mueller Hinton agar, 37°C, 18 hours, read-out: MIC.
# [12] = Bacillus subtilis PCI219, Mueller Hinton agar, 37°C, 18 hours, read-out: MIC.
# [13] = Mycobacterium 607, Mueller Hinton agar, 37°C, incubated for 40 hours, read-out: MIC.
# [14] = Pseudomonas aeruginosa A3, Mueller Hinton agar, 37°C, 18 hours, read-out: MIC.
# [15] = Corynebacterium bovis 1810, Mueller Hinton agar, 37°C, 18 hours, read-out: MIC.
# [16] = Staphylococcus aureus Ap01, resistance mechanism ANT(4'), Mueller Hinton agar, 37°C, 18 hours, read-out: MIC.
# [17] = SP.PV16, Providencia sp. Pv 16, resistance mechanism AAC(2'), Mueller Hinton agar, 37°C, 18 hours, read-out: MIC.
SMILES,MIC [2] [µg/mL],MIC [3] [µg/mL],MIC [4] [µg/mL],MIC (Escherichia coli K-12 R5) [µg/mL],MIC [5] [µg/mL],MIC [9] [µg/mL],MIC (Serratia marcescens; [10]) [µg/mL],"MIC [1, 11] [µg/mL]","MIC (Providencia sp. Pv 16; Providencia, SP.PV16, 18 h) [µg/mL]",MIC (Bacillus subtilis PCI219; [12]) [µg/mL],MIC (Escherichia coli JR225) [µg/mL],MIC (Escherichia coli K-12) [µg/mL],MIC (Mycobacterium 607; [13]) [µg/mL],"MIC [6, 14] [µg/mL]","MIC [7, 15] [µg/mL]",MIC (Proteus rettgeri GN 311) [µg/mL],"MIC [8, 16] [µg/mL]",MIC (Providencia sp. Pv 16; [17]) [µg/mL],other results
"NCC[C@H](O)C(=O)N[C@@H]1C[C@H](N)[C@@H](O[C@H]2O[C@H](CN)[C@@H](O)[C@H](O)[C@H]2O)[C@H](O)[C@H]1O[C@H]1O[C@H](CO)[C@@H](O)[C@H](N)[C@H]1O [AMK, 1-N-(4-amino-2-(S)-hydroxybutyryl)-kanamycin A, reference compound]",25,3.12,3.12,25,1.56,1.56,6.25,–,–,–,–,–,–,–,–,–,–,–,"MIC ([1]; Staphylococcus aureus, 209P, 18 h): 1.56 µg/mL; MIC (Bacillus subtilis PCI219; Bacillus subtilis, PCI219, 18 h): 1.56 µg/mL; MIC ([6]; Pseudomonas aeruginosa, A3, 18 h): 1.56 µg/mL; MIC ([7]; Corynebacterium bovis, 1810, 18 h): 1.56 µg/mL; MIC ([8]; Staphylococcus aureus, AP01, 18 h): 3.12 µg/mL"
"NC[C@H]1O[C@H](O[C@H]2[C@H](F)[C@@H](O[C@H]3O[C@H](CO)[C@@H](O)[C@H](N)[C@H]3O)[C@H](N)C[C@@H]2N)[C@H](N)[C@@H](O)[C@@H]1O [Compound No. 1, 5-Deoxy-5-fluorokanamycin B]",100,> 100,> 100,100,3.12,> 100,6.25,0.39,3.12,0.39,0.78,0.78,1.56,1.56,0.78,< 0.2,25,–,"antibacterial activity (Providencia sp. Pv 16; Providensia Pv 16, resistant strain having the enzyme for acetylating the 2'-amino group of kanamycin B): significantly active; antibacterial activity (Escherichia coli JR225; Escherichia coli JR 225, resistant strain having the enzyme for acetylating the 3-hydroxyl group of kanamycin B): significantly active; antibacterial activity ([5]; Escherichia coli K-12 LA290 R55, resistant strain having the enzyme for adenylating the 2""-hydroxyl group of kanamycin B): significantly active"
"NC[C@@H]1C[C@H](O)[C@@H](N)[C@@H](O[C@H]2[C@H](F)[C@@H](O[C@H]3O[C@H](CO)[C@@H](O)[C@H](N)[C@H]3O)[C@H](N)C[C@@H]2N)O1 [Compound No. 3, 5,4'-Dideoxy-5-fluorokanamycin B]",100,> 100,> 100,100,6.25,> 100,12.5,0.39,6.25,0.39,6.25,1.56,3.12,3.12,0.78,0.2,0.78,–,–
"NC[C@H](O)C(=O)N[C@@H]1C[C@H](N)[C@@H](O[C@H]2O[C@H](CN)[C@@H](O)[C@H](O)[C@H]2N)[C@H](F)[C@H]1O[C@H]1O[C@H](CO)[C@@H](O)[C@H](N)[C@H]1O [Compound No. 5, 1-N-(3-Amino-2-(S)-hydroxypropionyl)-5-deoxy-5-fluorokanamycin B]",6.25,1.56,3.12,12.5,1.56,0.78,–,0.39,–,0.78,0.2,< 0.2,6.25,0.2,< 0.2,< 0.2,6.25,0.78,MIC (Serratia marcescens; 18 h): 1.56 µg/mL
"NCC[C@H](O)C(=O)N[C@@H]1C[C@H](N)[C@@H](O[C@H]2O[C@H](CN)[C@@H](O)[C@H](O)[C@H]2N)[C@H](F)[C@H]1O[C@H]1O[C@H](CO)[C@@H](O)[C@H](N)[C@H]1O [Compound No. 6, 1-N-(4-Amino-2-(S)-hydroxybutyryl)-5-deoxy-5-fluorokanamycin B]",6.25,0.78,3.12,12.5,0.78,0.78,1.56,0.39,–,0.39,< 0.2,< 0.2,–,< 0.2,< 0.2,< 0.2,6.25,0.78,"MIC (Mycobacterium 607; Mycobacterium, 607, 40 h): 12.5 µg/mL"
